Earlier results in US20090022788A1, “DIETARY SUPPLEMENT FOR HEALING OR REGRESSING SYMPTOMS OF GASTROESOPHAGEAL REFLUX DISEASE, GASTRITIS AND ULCERS” (priority 2006, published 2009).

Tested on: spontaneous gastric ulcers
Settings: young pigs, 4-week administration in the diet

With `COc1ccc2[nH]cc(CCNC(C)=O)c2c1` [melatonin, N-Acetyl-5-methoxytryptamine] as the molecule, how does the “incidence of spontaneous gastric ulcers” value read?
The value was “significantly reduced”.
